Reference: patent US20110104055A1, “SUBSTITUTED N-ARYL BENZAMIDES AND RELATED COMPOUNDS FOR TREATMENT OF AMYLOID DISEASES AND SYNUCLEINOPATHIES” (priority 2002, published 2011)

Tests used:
Type in all cases: biochemical
Aβ 1-42 fibrils [1] = molecular target: T1, Aβ 1-42 fibrils (Homo sapiens, UniProt P05067); test: Thioflavin T fluorometry, disruption of pre-formed Aβ 1-42 fibrils (Example 11); conditions: 30 μg pre-fibrillized Aβ 1-42, 37° C., 3 days
T1 construct: purchased Bachem Inc
From the text: In one study, Thioflavin T fluorometry was used to determine the effects of the compounds, and of EDTA (as a negative control). In this assay Thioflavin T binds specifically to fibrillar amyloid, and this binding produces a fluorescence enhancement at 485 nm that is directly proportional to the amount of amyloid fibrils formed. The higher the fluorescence, the greater the amount of amyloid fibrils formed (Naki et al., Lab. Invest. 65:104-110, 1991; Levine III, Protein Sci. 2:404-410, 1993; Amyloid: Int. J. Exp. Clin. Invest. 2:1-6, 1995).
(§1) Following 3-days of co-incubation, 50 μl of each incubation mixture was transferred into a 96-well microtiter plate containing 150 μl of distilled water and 50 μl of a Thioflavin T solution (i.e. 500 mM Thioflavin T in 250 mM phosphate buffer, pH 6.8). The fluorescence was read at 485 nm (444 nm excitation wavelength) using an ELISA plate fluorometer after subtraction with buffer alone or compound alone, as blank.

α-synuclein fibrils [2] = molecular target: T2, α-synuclein fibrils (Homo sapiens, UniProt P37840); test: Congo red binding assay, α-synuclein fibrils (Example 12); conditions: 3-day incubation
T2 construct: purchased rPeptide
Experimental: (§2) In the Congo red binding assay, the ability of a given test compound to alter amyloid (in this case, α-synuclein) binding to Congo red is quantified. In this assay, α-synuclein and test compounds were incubated for 3 days and then vacuum filtered through a 0.2 μm filter. The amount of α-synuclein retained in the filter was then quantitated following staining of the filter with Congo red. After appropriate washing of the filter, any lowering of the Congo red color on the filter in the presence of the test compound (compared to the Congo red staining of the amyloid protein in the absence of the test compound) was indicative of the test compound's ability to diminish/alter the amount of aggregated and congophilic α-synuclein.
In one study, the ability of α-synuclein fibrils to bind Congo red in the absence or presence of increasing amounts of compounds DC-0051-F1, F2, F3, F4, F5, F6 and EDTA (at α-synuclein:test compound weight ratios of 1:1, 1:0.1, 1:0.01 or 1:0.001) was determined.

Aβ 1-42 fibrils [3] = molecular target: T1, Aβ 1-42 fibrils; test: Congo red binding assay, Aβ 1-42 fibrils (Example 11); conditions: 3-day incubation
Experimental: as §2, with “a” for “a given”, “Aβ)” for “α-synuclein)”, “Aβ 1-42” for “α-synuclein”, “Aβ.” for “α-synuclein.”
In one study, the ability of Aβ fibrils to bind Congo red in the absence or presence of increasing amounts of the compounds or EDTA (at Aβ:test compound weight ratios of 1:1, 1:0.1, 1:0.01 or 1:0.001) was determined.

α-synuclein fibrils [4] = molecular target: T2, α-synuclein fibrils; test: Thioflavin T fluorometry, disruption of pre-formed α-synuclein fibrils (Example 12); conditions: 3 days; for disruption/disassembly of pre-formed α-synuclein fibrils, in words: Thioflavin T fluorometry, all concentrations tested; for % Inhibition α-synuclein (result ± S.D.), Thioflavin T fluorometry: 30 μg pre-fibrillized α-synuclein, 37° C.
Experimental: In this assay, Thioflavin T binds specifically to α-synuclein fibrils, and this binding produces a fluorescence enhancement at 485 nm that is directly proportional to the amount of α-synuclein fibrils present. The higher the fluorescence, the greater the amount of α-synuclein fibrils present (Naki et al, Lab. Invest. 65:104-110, 1991; Levine III, Protein Sci. 2:404-410, 1993; Amyloid: Int. J. Exp. Clin. Invest. 2:1-6, 1995).
as §1, with “In this study, 30 μg of pre-fibrillized α-synuclein (rPeptide) was incubated at 37° C. for 3 days either alone or in the presence of compounds DC-0051-F1, F2, F3, F4, F5, F6 or EDTA (at α-synuclein:test compound weight ratios of 1:1, 1:0.1, 1:0.01 or 1:0.001). Following” for “Following”

[5] = Aβ:test compound wt/wt ratio 1:0.001
[6] = Aβ:test compound wt/wt ratio 1:0.01
[7] = Aβ:test compound wt/wt ratio 1:0.1
[8] = Aβ:test compound wt/wt ratio 1:1
[9] = α-synuclein:test compound wt/wt ratio 1:0.001
[10] = α-synuclein:test compound wt/wt ratio 1:0.01
[11] = α-synuclein:test compound wt/wt ratio 1:0.1
[12] = α-synuclein:test compound wt/wt ratio 1:1

T1 sequence (P05067 672-713): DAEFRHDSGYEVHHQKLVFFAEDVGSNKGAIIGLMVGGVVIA

| SMILES | % Inhibition Aβ (result ± S.D.), Thioflavin T fluorometry (Aβ 1-42 fibrils [1]; [5]) [%] | % Inhibition Aβ (result ± S.D.), Thioflavin T fluorometry (Aβ 1-42 fibrils [1]; [6]) [%] | % Inhibition Aβ (result ± S.D.), Thioflavin T fluorometry (Aβ 1-42 fibrils [1]; [7]) [%] | % Inhibition Aβ (result ± S.D.), Thioflavin T fluorometry (Aβ 1-42 fibrils [1]; [8]) [%] | % Inhibition α-synuclein (result ± S.D.), Congo red binding (α-synuclein fibrils [2]; [9]) [%] | % Inhibition α-synuclein (result ± S.D.), Congo red binding (α-synuclein fibrils [2]; [10]) [%] | % Inhibition α-synuclein (result ± S.D.), Congo red binding (α-synuclein fibrils [2]; [11]) [%] | % Inhibition α-synuclein (result ± S.D.), Congo red binding (α-synuclein fibrils [2]; [12]) [%] | % Inhibition Aβ (result ± S.D.), Congo red binding (Aβ 1-42 fibrils [3]; [5]) [%] | % Inhibition Aβ (result ± S.D.), Congo red binding (Aβ 1-42 fibrils [3]; [6]) [%] | % Inhibition Aβ (result ± S.D.), Congo red binding (Aβ 1-42 fibrils [3]; [7]) [%] | % Inhibition Aβ (result ± S.D.), Congo red binding (Aβ 1-42 fibrils [3]; [8]) [%] | disruption/disassembly of pre-formed α-synuclein fibrils, in words (α-synuclein fibrils [4]) | % Inhibition α-synuclein (result ± S.D.), Thioflavin T fluorometry (α-synuclein fibrils [4]; [9]) [%] | % Inhibition α-synuclein (result ± S.D.), Thioflavin T fluorometry (α-synuclein fibrils [4]; [10]) [%] | % Inhibition α-synuclein (result ± S.D.), Thioflavin T fluorometry (α-synuclein fibrils [4]; [11]) [%] | % Inhibition α-synuclein (result ± S.D.), Thioflavin T fluorometry (α-synuclein fibrils [4]; [12]) [%] |
| --- | --- | --- | --- | --- | --- | --- | --- | --- | --- | --- | --- | --- | --- | --- | --- | --- | --- |
| O=C(Nc1ccc(O)c(O)c1)c1ccc(O)c(O)c1F [DC-0051-F1, 3,4-Dihydroxy-2-fluoro-N-(3,4-dihydroxyphenyl)benzamide] | 15.6 ± 2.01 | 37.1 ± 1.44 | 91.3 ± 1.39 | 98.7 ± 0.38 | 0.0 ± 3.42 | 3.8 ± 5.82 | 32.9±2.97 | 69.8±2.67 | 3.7 ± 4.36 | 2.2 ± 7.70 | 27.5±2.39 | 80.1±2.61 | dose-dependent disruption/disassembly | 13.7 ± 6.06 | 58.4 ± 5.06 | 90.4 ± 2.07 | 100.0 ± 3.14 |
| O=C(Nc1ccc(O)c(O)c1)c1cc(O)c(O)cc1F [DC-0051-F2, N-(3,4-dihydroxyphenyl)-2-fluoro-4,5-dihydroxy benzamide] | 17.1 ± 4.32 | 53.7±6.29 | 95.9±0.88 | 99.6 ± 0.55 | 0.0 ± 6.71 | 3.7 ± 2.83 | 36.5±53.4 | 67.8±3.52 | 4.9 ± 7.88 | 0.5 ± 5.24 | 49.9±9.13 | 80.1±3.79 | dose-dependent disruption/disassembly | 15.9 ± 7.20 | 61.1±1.37 | 94.7±2.57 | 100.0 ± 1.49 |
| O=C(Nc1ccc(O)c(O)c1)c1cc(O)c(O)c(F)c1 [DC-0051-F3, 4,5-Dihydroxy-3-fluoro-N-(3,4-dihydroxyphenyl)benzamide] | 15.1 ± 3.81 | 34.6 ± 2.21 | 92.3 ± 0.19 | 99.0 ± 0.77 | 0.0 ± 3.93 | 2.6 ± 4.90 | 23.3 ± 2.24 | 55.9 ± 2.65 | 0.0 ± 2.64 | 0.0 ± 3.25 | 23.3 ± 5.01 | 74.5 ± 2.69 | dose-dependent disruption/disassembly | 13.8 ± 5.12 | 59.6±6.39 | 92.5±2.35 | 96.8 ± 2.82 |
